These results are taken from publication PMC9738727, “Purification and Characterization of Novel Anti-MRSA Peptides Produced by Brevibacillus sp. SPR-20” (Molecules, 2022).

One data set concerns MRSA isolate 1096. The data set is described as follows: microbe, parasite or virus in culture. To be noted: isolate 1096, 24 h. Type of data set: cell-based, Staphylococcus aureus. The protocol: (§1) The MIC and MBC of the purified peptides from SPR-20 were determined by broth microdilution assay following a standard guideline. S. aureus TISTR 517 and MRSA isolate 142, 1096, and 2468 as bacterial strains were cultured in MH agar at 37 °C for 18 h. […] The cells were then diluted to 5 × 10^6 CFU/mL using cation-adjusted Mueller Hinton broth (CAMHB). The diluted cell suspension (10 μL) was transferred to each well of a 96-well plate. The purified peptide in the total volume of 100 µL was added to each well to obtain the final concentrations between 0.5 and 64 µg/mL. The standard antibiotics (vancomycin and cefoxitin) (Sigma-Aldrich Co., St. Louis, MO, USA) and antibiotic-free samples were the positive and negative controls, respectively. CAMHB without tested bacteria was used as a blank. The 96-well plates were incubated at 37 °C for 24 h, and the experiment was performed in triplicate for each strain. […] Subsequently, 100 µL of each dilution was spread on MH agar and then incubated at 37 °C for 24 h.

The test system of the next data set is MRSA isolate 142. The data set is described as follows: microbe, parasite or virus in culture. Format: cell-based, Staphylococcus aureus. Particulars: isolate 142, 24 h. The protocol: as §1
The subject of data set [1] is MRSA isolate 2468. The data set is described as follows: microbe, parasite or virus in culture. Format: cell-based, Staphylococcus aureus. To be noted: isolate 2468, 24 h. The protocol: as §1
Data set [2] relates to S. aureus TISTR 517 and MRSA strains. The data set is described as follows: microbe, parasite or virus in culture. Type of data set: cell-based, Staphylococcus aureus. To be noted: TISTR 517 and strains, 18 h. The protocol:
as §1

In the next data set the test system is S. aureus TISTR 517. The data set is described as follows: microbe, parasite or virus in culture. Format: cell-based, Staphylococcus aureus. To be noted: TISTR 517, 24 h. The protocol: as §1
Data set [3] deals with MRSA isolate 2468. The data set is described as follows: Agar well diffusion, arbitrary activity of purification fractions. Format: cell-based, Staphylococcus aureus. Particulars: 2-fold dilutions, AU per mg total protein. The protocol: Eight milliliters of the SPR-20 starter culture was added to 392 mL of Luria–Bertani (LB) broth (Titan Biotech Ltd., Rajasthan, India) in a 2 L flask. The culture was incubated at 30 °C and 150 rpm for 24 h before the crude supernatant was collected by centrifugation at 10,000× g and 4 °C for 15 min. Ammonium sulfate at 75% of saturation was added to the supernatant, and the precipitate was desalted by dialysis using a 3.5 kDa molecular weight cut-off (MWCO) SnakeSkin membrane (Pierce, Rockford, IL, USA) in the dialysis buffer (50 mM ammonium acetate pH 5.0 and 50 mM NaCl) at 4 °C for 16 h. The sample solution was purified by a HiTrap SP column under the elution gradient of buffer A (50 mM ammonium acetate pH 5.0 and 50 mM NaCl) and buffer B (50 mM ammonium acetate pH 5.0 and 1 M NaCl). The flow rate was set at 3 mL/min, and the wavelength was monitored at 214 nm. […] The peak was detected at 214 nm. […] The active fractions obtained from each purification step were prepared at different concentrations using 2-fold dilution, and the antimicrobial activity against MRSA isolate 2468 was determined by agar well diffusion assay.
The antimicrobial activity was measured by an agar well diffusion test with some modified methods. […] Each experiment was performed in three independent replicates, and the inhibition zone was measured and expressed as mean ± SD.
(In general: Agar diffusion results depend on both activity and mobility in agar.)

Data set [4] can be described thus: Circular dichroism secondary structure content (CONTINLL). Format: physicochemical. Particulars: CD, 25 °C. The protocol: The purified peptides (0.6 mg/mL) were dissolved in deionized water or 50 mM SDS and introduced into the circular dichroism (CD) spectrophotometer (JASCO Corporation, Tokyo, Japan). A 1 mm quartz cell was used for the measurement. The CD spectra were collected at 25 °C in the wavelength between 190 and 260 nm with a scanning speed of 100 nm/min, a bandwidth of 1.0 nm, and a data resolution of 0.1 nm. Each experiment was performed in three replications, and the background spectrum of the corresponding solvent was subtracted from the peptide spectrum. The content of the secondary structure of the peptides was calculated using the CONTINLL program.

For another data set, the system named is human erythrocytes. The data set is described as follows: Hemolysis. Format: cell-based. To be noted: highest concentration with hemolysis below 10% divided by MIC. The protocol: Human blood (5 mL) from a healthy volunteer was collected in an EDTA tube. The erythrocytes were centrifuged at 700× g for 8 min and washed with PBS pH 7.4 three times. The erythrocytes were diluted with PBS pH 7.4 to reach a 0.5% v/v concentration. The suspension of erythrocytes (50 μL) was transferred to each well in a 96-well plate. The anti-MRSA peptide was dissolved and prepared by performing a 2-fold serial dilution with PBS pH 7.4 before the samples (50 μL) were added to the wells to achieve the final concentrations of 0.25–64 μg/mL. The reactions were incubated at 37 °C for 1 h, and the supernatant was collected by centrifugation at 1000× g for 10 min. The release of hemoglobin was monitored by measuring the absorbance at 540 nm. PBS pH 7.4 and 1% Triton X-100 were used as the negative and positive controls, respectively. The relative hemolysis was determined by normalizing the absorbance of the sample by that of the positive control. Each experiment was performed in three replications.

Ends that are not written are not given here.

VVVNVLVKVLPPPVV [Peptide P1]: the MBC in the data set with MRSA isolate 1096, in the data set with MRSA isolate 142, with MRSA isolate 2468 [1] and in the data set with S. aureus TISTR 517 was 4 µg/mL in each case. For the same sequence, the MIC against MRSA isolate 1096 came out at 2 µg/mL; against MRSA isolate 142, 2 µg/mL; in the data set on MRSA isolate 2468 [1], 2 µg/mL; in data set [2] it was 1.27 µM; against S. aureus TISTR 517, 2 µg/mL. In addition, the “Specific Activity” value with MRSA isolate 2468 [3] was determined as 1694 AU/mg. The figures for the Random in data set [4] (0.6 mg/mL in 50 mM SDS) and in data set [4] (0.6 mg/mL in H2O) were 34.6% and 32.4%, respectively. For the same sequence, the Turn in data set [4] (0.6 mg/mL in 50 mM SDS) stood at 10.6%; in data set [4] (0.6 mg/mL in H2O) it was 19.5%. Moreover, the α-Helix in data set [4] (0.6 mg/mL in 50 mM SDS) stood at 25.5%; in data set [4] (0.6 mg/mL in H2O), 4.1%. The results for the β-Strand in data set [4] (0.6 mg/mL in 50 mM SDS) and in data set [4] (0.6 mg/mL in H2O) were 29.3% and 44.0%, respectively. In the data set with human erythrocytes, the “therapeutic index of hemolysis (TIhemolysis)” value is recorded as 16.
